From patent US20090286827A1, “NOVEL BI-ARYL AMINES” (priority 2006, published 2009) come the findings set out here.

T1 sequence (P41594 21-1180 isoform P41594-2 limits assumed): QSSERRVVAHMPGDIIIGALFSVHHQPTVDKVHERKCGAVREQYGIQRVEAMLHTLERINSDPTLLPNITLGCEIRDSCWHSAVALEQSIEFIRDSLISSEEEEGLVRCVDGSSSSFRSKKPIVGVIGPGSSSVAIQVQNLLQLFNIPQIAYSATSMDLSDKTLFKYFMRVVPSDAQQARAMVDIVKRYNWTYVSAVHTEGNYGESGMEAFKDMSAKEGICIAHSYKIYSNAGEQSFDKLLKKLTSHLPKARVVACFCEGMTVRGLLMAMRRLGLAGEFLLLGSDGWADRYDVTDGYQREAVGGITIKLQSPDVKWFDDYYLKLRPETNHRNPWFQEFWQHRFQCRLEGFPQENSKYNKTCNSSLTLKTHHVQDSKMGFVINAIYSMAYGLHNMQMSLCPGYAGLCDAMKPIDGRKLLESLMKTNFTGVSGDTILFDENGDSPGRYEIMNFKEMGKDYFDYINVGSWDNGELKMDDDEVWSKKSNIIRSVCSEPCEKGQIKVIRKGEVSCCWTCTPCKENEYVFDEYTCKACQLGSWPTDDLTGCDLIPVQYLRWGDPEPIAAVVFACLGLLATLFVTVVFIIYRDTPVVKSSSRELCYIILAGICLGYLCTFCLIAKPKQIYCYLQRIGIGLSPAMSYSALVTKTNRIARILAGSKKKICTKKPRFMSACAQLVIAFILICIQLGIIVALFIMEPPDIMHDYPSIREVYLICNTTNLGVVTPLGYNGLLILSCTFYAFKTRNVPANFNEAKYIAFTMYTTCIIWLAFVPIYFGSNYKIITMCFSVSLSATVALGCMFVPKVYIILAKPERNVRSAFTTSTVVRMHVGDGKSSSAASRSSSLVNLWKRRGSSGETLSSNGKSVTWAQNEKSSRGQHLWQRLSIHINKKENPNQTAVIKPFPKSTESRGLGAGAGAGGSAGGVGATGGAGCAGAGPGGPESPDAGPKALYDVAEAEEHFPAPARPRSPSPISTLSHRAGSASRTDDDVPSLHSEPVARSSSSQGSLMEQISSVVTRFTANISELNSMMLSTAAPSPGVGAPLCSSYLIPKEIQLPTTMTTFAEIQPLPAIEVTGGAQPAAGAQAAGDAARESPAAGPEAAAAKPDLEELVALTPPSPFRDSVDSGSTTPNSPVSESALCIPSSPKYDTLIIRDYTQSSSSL

One assay has as its target T1, mGluR5 (Homo sapiens, UniProt P41594).
T1 construct: expressed in transfected cells
Briefly: inhibition of the glutamate induced elevation of intracellular Ca2+-concentration. The class given is cell-based. The following applies: inhibition of glutamate induced elevation of intracellular Ca2+ at a concentration of 10 μM. The text has this: This can be determined in vitro for example at recombinant human metabotropic glutamate receptors, especially PLC-coupled subtypes thereof such as mGluR5, using different procedures like, for example, measurement of the inhibition of the agonist induced elevation of intracellular Ca^2+ concentration in accordance with L. P. Daggett et al., Neuropharm. Vol. 34, pages 871-886 (1995), P. J. Flor et al., J. Neurochem. Vol. 67, pages 58-63 (1996) or by determination to what extent the agonist induced elevation of the inositol phosphate turnover is inhibited as described by T. Knoepfel et al., Eur. J. Pharmacol. Vol. 288, pages 389-392 (1995), L. P. Daggett et al., Neuropharm. Vol. 34, pages 871-886 (1995) and references cited therein. Isolation and expression of human mGluR subtypes are described in U.S. Pat. No. 5,521,297. Selected agents of the invention show IC50 values for the inhibition of the agonist (e.g. glutamate or quisqualate) induced elevation of intracellular Ca2+ concentration or the agonist (e.g. glutamate or quisqualate) induced inositol phosphate turnover, measured in recombinant cells expressing hmGluR5a of about 1 nM to about 50 μM.
Activity of compounds of the present invention was examined by measurement of the inhibition of the glutamate induced elevation of intracellular Ca^2+-concentration following similar methods than those described in L. P. Daggett et al., Neuropharm. Vol. 34, pages 871-886 (1995), P. J. Flor et al., J. Neurochem. Vol. 67, pages 58-63 (1996).
The table below represents percentages of inhibition of the glutamate induced elevation of intracellular Ca^2+-concentration at a concentration of 10 μM.
For `Clc1ccc(Nc2ccc(-c3nccn3C3CCCCC3)cn2)cc1` [Compound 7, (4-Chloro-phenyl)-[5-(1-yclohexyl-1H-imidazol-2-yl)-pyridin-2-yl]-amine], the “mGluR5 Activity inh. at 10 μM [%]” value was determined as 27%.

The same assay, now with this note: inhibition of glutamate induced elevation of intracellular Ca2+ at a concentration of 10 μM; read-out: mGluR5 Activity inh. at 10 μM [%].
`CC(C)n1ccnc1-c1ccc(Nc2ccc(Cl)cc2)nc1` [Compound 4, (4-Chloro-phenyl)-[5-(1-isopropyl-1H-imidazol-2-yl)-pyridin-2-yl]-amine]: the inhibition at 10 µM is 93%.

Consider `CCCCc1cnnn1-c1cnc(Nc2ccc(Cl)cc2)c(Cl)c1` [Compound 44, [5-(5-Butyl-[1,2,3]triazol-1-yl)-3-chloro-pyridin-2-yl]-(4-chloro-phenyl)-amine], for which the inhibition at 10 µM stood at 98%.

Take `Cn1cc(C(C)(C)C)nc1-c1cnc(Nc2ccc(Cl)cc2)c(Cl)c1` [Compound 38, [5-(4-tert-Butyl-1-methyl-1H-imidazol-2-yl)-3-chloro-pyridin-2-yl]-(4-chloro-phenyl)-amine]: the inhibition at 10 µM stood at 86%.

`Clc1ccc(Nc2ncc(-c3nnc4n3CCCC4)cc2Cl)cc1` [Compound 24, (4-Chloro-phenyl)-[3-chloro-5-(5,6,7,8-tetrahydro-[1,2,4]triazolo[4,3-a]pyridin-3-yl)-pyridin-2-yl]-amine]: the inhibition at 10 µM turned out to be 89%.

As to `Cc1cn(C)c(-c2cnc(Nc3ccc(Cl)cc3)c(Cl)c2)n1` [Compound 30, [3-Chloro-5-(1,4-dimethyl-1H-imidazol-2-yl)-pyridin-2-yl]-(4-chloro-phenyl)-amine], the inhibition at 10 µM turned out to be 98%.

Turning to `CCCc1cnnn1-c1cnc(Nc2ccc(Cl)cc2)c(Cl)c1` [Compound 45, (4-Chloro-phenyl)-[3-chloro-5-(5-propyl-[1,2,3]triazol-1-yl)-pyridin-2-yl]-amine], the inhibition at 10 µM was 89%.

`CCCn1cc(C)nc1-c1cnc(Nc2ccc(Cl)cc2)c(Cl)c1` [Compound 33, [3-Chloro-5-(4-methyl-1-propyl-1H-imidazol-2-yl)-pyridin-2-yl]-(4-chloro-phenyl)-amine]: the inhibition at 10 µM worked out at 100%.

`Clc1ccc(Nc2ncc(-c3ncc4ccccn34)cc2Cl)cc1` [Compound 16, (3-Chloro-5-imidazo[1,5-a]pyridin-3-yl-pyridin-2-yl)-(4-chloro-phenyl)-amine]: the inhibition at 10 µM turned out to be 32%.

Take `Clc1ccc(Nc2ccc(-c3nnc4ccccn34)cn2)cc1` [Compound 14, (4-Chloro-phenyl)-(5-[1,2,4]triazolo[4,3-a]pyridin-3-yl-pyridin-2-yl)-amine]: the inhibition at 10 µM was found to be 28%.

For `CCCCn1cc(C(C)(C)C)nc1-c1cnc(Nc2ccc(Cl)cc2)c(Cl)c1` [Compound 41, [5-(1-Butyl-4-tert-butyl-1H-imidazol-2-yl)-3-chloro-pyridin-2-yl]-(4-chloro-phenyl)-amine], the inhibition at 10 µM turned out to be 79%.

As to `Clc1ccc(Nc2ncc(-c3ncc4n3CCCC4)cc2Cl)cc1` [Compound 17, (4-Chloro-phenyl)-[3-chloro-5-(5,6,7,8-tetrahydro-imidazo[1,5-a]pyridin-3-yl)-pyridin-2-yl]-amine], the inhibition at 10 µM stood at 95%.

As to `Cn1ccnc1-c1ccc(Nc2ccc(Cl)cc2)nc1` [Compound 2, (4-Chloro-phenyl)-[5-(1-methyl-1H-imidazol-2-yl)-pyridin-2-yl]-amine], the inhibition at 10 µM is 81%.

Regarding `CCCn1nnnc1-c1cnc(Nc2ccc(Cl)cc2)c(Cl)c1` [Compound 22, (4-Chloro-phenyl)-[3-chloro-5-(1-propyl-1H-tetrazol-5-yl)-pyridin-2-yl]-amine], the inhibition at 10 µM was determined as 49%.

For the molecule `CCn1ccnc1-c1cnc(Nc2ccc(Cl)cc2)c(Cl)c1` [Compound 15, [3-Chloro-5-(1-ethyl-1H-imidazol-2-yl)-pyridin-2-yl]-(4-chloro-phenyl)-amine], the inhibition at 10 µM amounted to 100%.

Turning to `CCc1c(C)n(CC)c(-c2cnc(Nc3ccc(Cl)cc3)c(Cl)c2)[n+]1CC` [Compound 43, 2-[5-Chloro-6-(4-chloro-phenylamino)-pyridin-3-yl]-1,3,5-triethyl-4-methyl-3H-imidazol-1-ium iodide], the inhibition at 10 µM came to 37%.

With `CCCn1cc(C(C)(C)C)nc1-c1cnc(Nc2ccc(Cl)cc2)c(Cl)c1` [Compound 40, [5-(4-tert-Butyl-1-propyl-1H-imidazol-2-yl)-3-chloro-pyridin-2-yl]-(4-chloro-phenyl)-amine], the inhibition at 10 µM was found to be 100%.

For `Clc1ccc(Nc2ncc(-c3nnc4n3CCCCC4)cc2Cl)cc1` [Compound 25, (4-Chloro-phenyl)-[3-chloro-5-(6,7,8,9-tetrahydro-5H-[1,2,4]triazolo[4,3-a]azepin-3-yl)-pyridin-2-yl]-amine], the inhibition at 10 µM was found to be 93%.

Consider `Cc1cc(-c2cnc(Nc3ccc(Cl)cc3)c(Cl)c2)n(C)n1` [Compound 29, [3-Chloro-5-(2,5-dimethyl-2H-pyrazol-3-yl)-pyridin-2-yl]-(4-chloro-phenyl)-amine], for which the inhibition at 10 µM was 39%.

`CC(C)(C)c1cnc(-c2cnc(Nc3ccc(Cl)cc3)c(Cl)c2)[nH]1` [Compound 37, [5-(5-tert-Butyl-1H-imidazol-2-yl)-3-chloro-pyridin-2-yl]-(4-chloro-phenyl)-amine]: the inhibition at 10 µM was found to be 95%.

Consider `Clc1ccc(Nc2ccc(-c3nccn3CC3CC3)cn2)cc1` [Compound 6, (4-Chloro-phenyl)-[5-(1-cyclopropylmethyl-1H-imidazol-2-yl)-pyridin-2-yl]-amine], for which the inhibition at 10 µM is 96%.

As for `CCc1cn(CC)c(-c2cnc(Nc3ccc(Cl)cc3)c(Cl)c2)n1` [Compound 36, [3-Chloro-5-(1,4-diethyl-1H-imidazol-2-yl)-pyridin-2-yl]-(4-chloro-phenyl)-amine], the inhibition at 10 µM came out at 78%.

In the case of `Clc1ccc(Nc2ncc(-c3nnn[nH]3)cc2Cl)cc1` [Compound 21, (4-Chloro-phenyl)-[3-chloro-5-(1H-tetrazol-5-yl)-pyridin-2-yl]-amine], the inhibition at 10 µM was 56%.

For the molecule `CCn1c(-c2cnc(Nc3ccc(Cl)cc3)c(Cl)c2)nc(C)c1C` [Compound 20, [3-Chloro-5-(1-ethyl-4,5-dimethyl-1H-imidazol-2-yl)-pyridin-2-yl]-(4-chloro-phenyl)-amine], the inhibition at 10 µM is 92%.

As for `CCCn1c(-c2cnc(Nc3ccc(Cl)cc3)c(Cl)c2)nc(C)c1C` [Compound 42, [3-Chloro-5-(4,5-dimethyl-1-propyl-1H-imidazol-2-yl)-pyridin-2-yl]-(4-chloro-phenyl)-amine], the inhibition at 10 µM turned out to be 94%.

As for `CCn1ccnc1-c1ccc(Nc2ccc(Cl)cc2)nc1` [Compound 1, (4-Chloro-phenyl)-[5-(1-ethyl-1H-imidazol-2-yl)-pyridin-2-yl]-amine], the inhibition at 10 µM came out at 94%.

In the case of `CC(C)n1cnc(-c2ccc(Nc3ccc(Cl)cc3)nc2)c1` [Compound 11, (4-Chloro-phenyl)-[5-(1-isopropyl-1H-imidazol-4-yl)-pyridin-2-yl]-amine], the inhibition at 10 µM was determined as 56%.

As to `CCCc1nn[nH]c1-c1cnc(Nc2ccc(Cl)cc2)c(Cl)c1` [Compound 46, (4-Chloro-phenyl)-[3-chloro-5-(5-propyl-3H-[1,2,3]triazol-4-yl)-pyridin-2-yl]-amine], the inhibition at 10 µM was found to be 68%.

As for `CCCn1ccnc1-c1ccc(Nc2ccc(Cl)cc2)nc1` [Compound 3, (4-Chloro-phenyl)-[5-(1-propyl-1H-imidazol-2-yl)-pyridin-2-yl]-amine], the inhibition at 10 µM stood at 96%.

In the case of `Cc1cn(-c2cnc(Nc3ccc(Cl)cc3)c(Cl)c2)cn1` [Compound 49, [3-Chloro-5-(4-methyl-imidazol-1-yl)-pyridin-2-yl]-(4-chloro-phenyl)-amine], the inhibition at 10 µM is 35%.

Take `CCCn1ccnc1-c1cnc(Nc2ccc(Cl)cc2)c(Cl)c1` [Compound 19, (4-Chloro-phenyl)-[3-chloro-5-(1-propyl-1H-imidazol-2-yl)-pyridin-2-yl]-amine]: the inhibition at 10 µM came to 97%.

For `CC(C)c1nccn1-c1cnc(Nc2ccc(Cl)cc2)c(Cl)c1` [Compound 47, [3-Chloro-5-(2-isopropyl-imidazol-1-yl)-pyridin-2-yl]-(4-chloro-phenyl)-amine], the inhibition at 10 µM came to 34%.

Take `CC(C)n1cncc1-c1ccc(Nc2ccc(Cl)cc2)nc1` [Compound 10, (4-Chloro-phenyl)-[5-(3-isopropyl-3H-imidazol-4-yl)-pyridin-2-yl]-amine]: the inhibition at 10 µM came out at 73%.

On to `Clc1ccc(Nc2ncc(-c3nnc4n3CCCCCC4)cc2Cl)cc1` [Compound 26, [3-Chloro-5-(5,6,7,8,9,10-hexahydro-[1,2,4]triazolo[4,3-a]azocin-3-yl)-pyridin-2-yl]-(4-chloro-phenyl)-amine], for which the inhibition at 10 µM came out at 98%.

Regarding `CCn1ccnc1-c1cnc(Nc2ccc(C)nc2)c(Cl)c1` [Compound 18, [3-Chloro-5-(1-ethyl-1H-imidazol-2-yl)-pyridin-2-yl]-(6-methyl-pyridin-3-yl)-amine], the inhibition at 10 µM amounted to 95%.
